Each compound was assayed against T1, Receptor-type tyrosine-protein kinase FLT3 (Homo sapiens, UniProt P36888) (assay: Inhibition of FLT3 by HTRF assay).
T1 sequence (P36888 whole entry): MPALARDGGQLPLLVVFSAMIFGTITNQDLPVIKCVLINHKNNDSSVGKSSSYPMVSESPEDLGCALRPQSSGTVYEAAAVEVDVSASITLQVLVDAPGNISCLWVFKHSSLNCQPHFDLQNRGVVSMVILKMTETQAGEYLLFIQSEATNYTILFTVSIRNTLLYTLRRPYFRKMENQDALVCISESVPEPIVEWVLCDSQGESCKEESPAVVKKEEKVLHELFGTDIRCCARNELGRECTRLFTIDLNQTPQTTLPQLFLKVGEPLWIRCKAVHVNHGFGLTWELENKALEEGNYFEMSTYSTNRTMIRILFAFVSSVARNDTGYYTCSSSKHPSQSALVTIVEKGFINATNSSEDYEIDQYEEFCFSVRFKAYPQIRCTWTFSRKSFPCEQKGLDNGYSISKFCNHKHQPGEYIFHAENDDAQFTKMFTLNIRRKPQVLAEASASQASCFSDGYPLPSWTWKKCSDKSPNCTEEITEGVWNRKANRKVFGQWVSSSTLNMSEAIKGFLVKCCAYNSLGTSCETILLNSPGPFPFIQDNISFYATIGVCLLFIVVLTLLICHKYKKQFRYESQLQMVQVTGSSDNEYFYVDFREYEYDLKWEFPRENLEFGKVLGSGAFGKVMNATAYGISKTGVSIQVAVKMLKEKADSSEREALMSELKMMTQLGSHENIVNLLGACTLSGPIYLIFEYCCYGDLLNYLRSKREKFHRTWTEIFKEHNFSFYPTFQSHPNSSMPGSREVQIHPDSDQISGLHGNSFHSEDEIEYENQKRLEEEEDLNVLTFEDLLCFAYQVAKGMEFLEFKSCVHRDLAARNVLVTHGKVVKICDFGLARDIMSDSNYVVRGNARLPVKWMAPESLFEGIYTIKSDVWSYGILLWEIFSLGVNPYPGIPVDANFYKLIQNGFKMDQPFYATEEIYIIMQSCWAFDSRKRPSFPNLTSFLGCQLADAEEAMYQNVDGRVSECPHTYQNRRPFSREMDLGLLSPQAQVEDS

IC50, > 10 µM:
O=C1N=c2ccc([N+](=O)[O-])cc2=C1c1[nH]c2ccccc2c1O [(Z)-5'-Nitro-1H,1'H-[2,3']biindolylidene-3,2'-dione]
Cc1cc(Cl)cc2c1NC(=O)C2c1[nH]c2ccccc2c1N=O (centres undefined) [5'-Chloro-7'-methyl-1H,1'H-[2,3']biindolylidene-3,2'-dione 3-oxime]
O=Nc1c(C2C(=O)Nc3ccc(OC(F)(F)F)cc32)[nH]c2ccccc12 (centres undefined) [5'-Trifluoromethoxy-1H,1'H-[2,3']biindolylidene-3,2'-dione 3-oxime]
O=Nc1c(C2C(=O)Nc3ccc([N+](=O)[O-])cc32)[nH]c2ccc(Br)cc12 (centres undefined) [(Z)-5-Bromo-5'-nitro-1H,1'H-[2,3']biindolylidene-3,2'-dione 3-oxime]

Source: BindingDB's records for doi:10.1016/j.bmcl.2010.01.039 (Institute of Science and Technology, 2010)
